From the supplement of paper PMC11451515

System: NOMO1
Assay: cell viability relative to DMSO control; higher = less cytotoxic
Conditions: 48 h
Method in brief: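 Viability was expressed as a per-plate percentage of DMSO wells, with cell-free wells as background. Leukemia cells (NOMO1 or SEM at 500 cells/well, P12-Ichikawa at 1000 cells/well) were adapted for at least four passages in each medium and seeded in 1536-well plates (5 μl). Library compounds in DMSO were pin-dosed over an 11-point threefold series from 47 μM to 0.79 nM, and CellTiter-Glo One luminescence was read after 48 h at 37°C.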

[1] = HPLM + 10% dialyzed FBS, 0.000781 µM
[2] = HPLM + 10% dialyzed FBS, 0.00234 µM
[3] = HPLM + 10% dialyzed FBS, 0.00702 µM
[4] = HPLM + 10% dialyzed FBS, 0.0211 µM
[5] = HPLM + 10% dialyzed FBS, 0.0632 µM
[6] = HPLM + 10% dialyzed FBS, 0.19 µM
[7] = HPLM + 10% dialyzed FBS, 0.569 µM
[8] = HPLM + 10% dialyzed FBS, 1.71 µM
[9] = HPLM + 10% dialyzed FBS, 5.12 µM
[10] = HPLM + 10% dialyzed FBS, 15.4 µM
[11] = HPLM + 10% dialyzed FBS, 46.1 µM
[12] = RPMI 5 mM glucose + 10% FBS, 0.000781 µM
[13] = RPMI 5 mM glucose + 10% FBS, 0.00234 µM
[14] = RPMI 5 mM glucose + 10% FBS, 0.00702 µM
[15] = RPMI 5 mM glucose + 10% FBS, 0.0211 µM
[16] = RPMI 5 mM glucose + 10% FBS, 0.0632 µM
[17] = RPMI 5 mM glucose + 10% FBS, 0.19 µM
[18] = RPMI 5 mM glucose + 10% FBS, 0.569 µM
[19] = RPMI 5 mM glucose + 10% FBS, 1.71 µM
[20] = RPMI 5 mM glucose + 10% FBS, 5.12 µM
[21] = RPMI 5 mM glucose + 10% FBS, 15.4 µM
[22] = RPMI 5 mM glucose + 10% FBS, 46.1 µM
[23] = RPMI 5 mM glucose + 10% dialyzed FBS, 0.000781 µM
[24] = RPMI 5 mM glucose + 10% dialyzed FBS, 0.00234 µM
[25] = RPMI 5 mM glucose + 10% dialyzed FBS, 0.00702 µM
[26] = RPMI 5 mM glucose + 10% dialyzed FBS, 0.0211 µM
[27] = RPMI 5 mM glucose + 10% dialyzed FBS, 0.0632 µM
[28] = RPMI 5 mM glucose + 10% dialyzed FBS, 0.19 µM
[29] = RPMI 5 mM glucose + 10% dialyzed FBS, 0.569 µM
[30] = RPMI 5 mM glucose + 10% dialyzed FBS, 1.71 µM
[31] = RPMI 5 mM glucose + 10% dialyzed FBS, 5.12 µM
[32] = RPMI 5 mM glucose + 10% dialyzed FBS, 15.4 µM
[33] = RPMI 5 mM glucose + 10% dialyzed FBS, 46.1 µM

Row | Compound | cell viability [1] | cell viability [2] | cell viability [3] | cell viability [4] | cell viability [5] | cell viability [6] | cell viability [7] | cell viability [8] | cell viability [9] | cell viability [10] | cell viability [11] | cell viability [12] | cell viability [13] | cell viability [14] | cell viability [15] | cell viability [16] | cell viability [17] | cell viability [18] | cell viability [19] | cell viability [20] | cell viability [21] | cell viability [22] | cell viability [23] | cell viability [24] | cell viability [25] | cell viability [26] | cell viability [27] | cell viability [28] | cell viability [29] | cell viability [30] | cell viability [31] | cell viability [32] | cell viability [33]
1 | CCC(CC)[C@H](NC(C)=O)[C@@H]1[C@H](O)[C@@H](C(=O)O)C[C@H]1NC(=N)N | 67.7% | 72% | 78% | 85% | 80.9% | 96.4% | 90.3% | 90.8% | 87.7% | 82.8% | 94.9% | 81.8% | 85% | 88.7% | 85.8% | 89% | 84.3% | 90% | 87.1% | 84.1% | 79.5% | 81.1% | 80.4% | 79.7% | 82.6% | 80.4% | 93% | 83% | 90.2% | 81.7% | 78.2% | 78.3% | 83.1%
2 | COc1cc2ncnc(Nc3ccc(F)c(Cl)c3)c2cc1OCCCN1CCOCC1 | 127% | 115% | 112% | 95.3% | 109% | 117% | 108% | 96.8% | 93.7% | 64% | 29.2% | 111% | 114% | 109% | 106% | 102% | 116% | 104% | 100% | 101% | 87.7% | 86.2% | 121% | 112% | 122% | 112% | 115% | 113% | 114% | 109% | 93.4% | 97.5% | 75.1%
3 | CCCCOc1ccc(C(=O)Nc2ccc(F)cc2F)cc1 | 85.8% | 90.8% | 91.4% | 96.3% | 89.2% | 85.6% | 103% | 104% | 92.2% | 97.8% | 51% | 81.7% | 87.5% | 81.5% | 89.5% | 86.3% | 94.7% | 88.1% | 93.8% | 92.9% | 88.3% | 83% | 79.5% | 89.2% | 76.8% | 97.5% | 89.6% | 95.4% | 91.9% | 96.5% | 97.8% | 88.5% | 92%
4 | CCCCc1oc2ccc(NS(C)(=O)=O)cc2c1C(=O)c1ccc(OCCCN(CCCC)CCCC)cc1 | 109% | 107% | 100% | 105% | 96.7% | 113% | 114% | 64.7% | 34% | 27.5% | 14.4% | 86.9% | 98% | 103% | 98.3% | 97.1% | 93.4% | 103% | 28.8% | 17.8% | 16.4% | 9.17% | 83.2% | 95.5% | 102% | 102% | 93.7% | 106% | 103% | 66% | 28.3% | 20.6% | 12.5%
5 | c1ccc(-c2nn3c(c2-c2ccnc4cc(OCCN5CCOCC5)ccc24)CCC3)nc1 | 122% | 126% | 113% | 129% | 133% | 119% | 124% | 108% | 117% | 96.1% | 70.6% | 86% | 99.6% | 107% | 105% | 111% | 108% | 108% | 99.2% | 97.8% | 91.3% | 91.7% | 66.2% | 116% | 102% | 108% | 106% | 108% | 109% | 101% | 98.5% | 92.8% | 83.4%
6 | CC(C)(O)CNc1nc(Nc2ccnc(C(F)(F)F)c2)nc(-c2cccc(C(F)(F)F)n2)n1 | 99.2% | 99.4% | 131% | 120% | 146% | 122% | 134% | 114% | 99.4% | 85.8% | 72.8% | 112% | 115% | 102% | 109% | 118% | 106% | 103% | 123% | 43.7% | 50.3% | 48.7% | 105% | 110% | 120% | 115% | 121% | 117% | 109% | 114% | 56.3% | 53.2% | 62.5%
7 | CC1(C)OC/2=C(\[C@H](NCC3=CC=CC=C3)[C@@H]1O)C(=O)C4=CC=CC=C4C2=O | 112% | 36.5% | 117% | 101% | 104% | 96.1% | 108% | 82.5% | 37.6% | 22.4% | 7.72% | 89.7% | 99.6% | 89.2% | 95.5% | 86.7% | 93.8% | 95% | 98.2% | 37.4% | 17.5% | 5.95% | 86.7% | 90.2% | 88.1% | 89.3% | 98.3% | 92.6% | 97.6% | 86.9% | 60.2% | 26.7% | 5.24%
8 | N=C(N)c1ccc(OCCCCCOc2ccc(C(=N)N)cc2)cc1 | 111% | 105% | 113% | 121% | 130% | 133% | 104% | 104% | 110% | 75.8% | 46.6% | 100% | 114% | 113% | 108% | 113% | 92.2% | 116% | 107% | 93.6% | 84.8% | 47.7% | 91.6% | 101% | 121% | 115% | 114% | 107% | 108% | 98.6% | 98.3% | 70.6% | 49.2%
9 | COc1ccc2cc(-c3[nH]c(-c4ccc([S+](C)[O-])cc4)nc3-c3ccncc3)ccc2c1 (stereo unspecified) | 115% | 118% | 124% | 118% | 136% | 143% | 148% | 126% | 120% | 143% | 111% | 100% | 103% | 114% | 113% | 114% | 99.1% | 107% | 111% | 108% | 110% | 134% | 111% | 98.5% | 106% | 118% | 121% | 113% | 130% | 123% | 127% | 150% | 119%
10 | Cc1cnc(Nc2ccc(OCCN3CCCC3)cc2)nc1Nc1cccc([S+](=O)([O-])NC(C)(C)C)c1 | 78.8% | 102% | 109% | 116% | 117% | 126% | 102% | 114% | 110% | 100% | 84.3% | 105% | 107% | 104% | 90.3% | 108% | 110% | 98% | 97.3% | 114% | 92.7% | 102% | 87.5% | 106% | 99.6% | 105% | 100% | 102% | 103% | 102% | 103% | 102% | 100%
11 | Cn1cc(-c2ccncc2)c(-c2ccc(OCc3ccc4ccccc4n3)cc2)n1 |  |  |  |  |  |  |  |  |  |  |  |  |  |  |  |  |  |  |  |  |  |  | 102% | 123% | 133% | 125% | 114% | 117% | 131% | 123% | 109% | 111% | 98.4%
12 | CCOC(=O)c1ccc(C#Cc2ccc3c(c2)C(C)(C)CCS3)nc1 | 101% | 109% | 122% | 108% | 86.1% | 104% | 103% | 101% | 97.8% | 89.1% | 79.6% | 94% | 108% | 91.6% | 100% | 93.3% | 94% | 107% | 96.8% | 99.4% | 98.6% | 94.2% | 90% | 108% | 104% | 109% | 97.9% | 90.2% | 90.7% | 94.9% | 94.6% | 99.6% | 88.7%
13 | CN1C(=O)COc2c(C(=O)NC3CN4CCC3CC4)cc(Cl)cc21 (stereo unspecified) | 68.8% | 121% | 112% | 107% | 105% | 104% | 119% | 109% | 104% | 111% | 108% | 90.2% | 106% | 94.2% | 88.8% | 110% | 109% | 99% | 92.1% | 90.6% | 105% | 85.6% | 104% | 102% | 106% | 93.2% | 97.1% | 91.6% | 97.6% | 89.7% | 90.5% | 85.8% | 97.7%
14 | CC1(C)O[C@H]2CC(=O)OC[C@]23[C@H]2CC[C@@]4(C)[C@H](c5ccoc5)OC(=O)[C@H]5O[C@]54[C@]2(C)C(=O)C[C@@H]13 | 114% | 91.3% | 98.8% | 84.5% | 99.4% | 110% | 99.2% | 115% | 114% | 103% | 87.7% | 96.8% | 89.8% | 93.7% | 96.1% | 101% | 105% | 98.9% | 108% | 98.4% | 103% | 97.8% | 87.2% | 95.7% | 83% | 101% | 102% | 98.5% | 96.7% | 110% | 99.1% | 109% | 98%
15 | COc1ccc(-c2c(-c3ccc(O)cc3O)n[nH]c2C)cc1 | 108% | 115% | 105% | 115% | 126% | 117% | 104% | 123% | 83% | 102% | 59% | 89% | 98.4% | 105% | 101% | 100% | 113% | 105% | 111% | 106% | 102% | 90.3% | 91% | 98% | 102% | 124% | 113% | 110% | 121% | 99.1% | 109% | 99.1% | 77.1%
16 | CC(C)[C@@H](N(CCCN)C(=O)C1=CC=C(C)C=C1)C/2=C(\CC3=CC=CC=C3)C(=O)C4=C(O2)C=C(Cl)C=C4 | 47.8% | 38.1% | 34.7% | 35.9% | 40.9% | 45.8% | 34.9% | 36.3% | 32.5% | 40.7% | 4.73% | 20.1% | 26.5% | 29% | 26.4% | 21.9% | 29% | 21.1% | 23.9% | 27.2% | 31.7% | 7.48% | 48.7% | 34.7% | 29.5% | 30.9% | 35.1% | 34.6% | 27.2% | 32.8% | 29.6% | 33.5% | 5.92%
